Laboratory results published in patent US20090226398A1, “ANTI-VIRAL COMPOUNDS, COMPOSITIONS, AND METHODS OF USE” (Genelabs Technologies, Inc., priority 2008, published 2009).

Test system: HCV replication
Assay: Replicon Assay (Huh-lucubineo-ET cells, luciferase readout)
Type: cell-based
Conditions: Hepatitis C virus; ET (Huh-lucubineo-ET) HCV replicon cell line; luciferase activity 48-72 hours after compound addition; 6 dilutions
Method in brief: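 Huh-lucubineo-ET cells stably carrying a firefly luciferase-ubiquitin-neo/NS3-5B ET replicon (adaptive mutations E1202G, T1280I, K1846T) were plated 24 h before compound, then treated at 5 or 50 μM or six 3-fold dilutions. Luciferase read 48-72 h later; % inhibition vs no-compound control, EC50/TC50 from Hill-equation fit.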

SMILES	EC50 [nM]
N#Cc1cc(C(F)(F)F)ccc1-c1ccc(Cn2cc3nc(-c4cccc(F)c4F)nc-3cn2)cn1 [Compound 340, 2-{5-[2-(2,3-Difluoro-phenyl)-imidazo[4,5-d]pyridazin-5-ylmethyl]-pyridin-2-yl}-5-trifluoromethyl-benzonitrile]	95
Fc1cccc(-c2nc3cnn(Cc4ccc(Oc5ccc(OC(F)(F)F)cc5)nn4)cc-3n2)c1F [Compound 341, 2-(2,3-Difluoro-phenyl)-5-[6-(4-trifluoromethoxy-phenoxy)-pyridazin-3-ylmethyl]-5H-imidazo[4,5-d]pyridazine]	6030
COc1ccc(-c2ccc(Cn3cc4nc(-c5cccc(F)c5F)nc-4cn3)c(C(=O)O)c2)c(C(F)(F)F)c1 [Compound 342, 4-[2-(2,3-Difluoro-phenyl)-imidazo[4,5-d]pyridazin-5-ylmethyl]-4′-methoxy-2′-trifluoromethyl-biphenyl-3-carboxylic acid]	≥ 50000
Fc1cccc(-c2nc3cnn(Cc4ccc(Oc5ccc(C(F)(F)F)cc5C(F)(F)F)cc4)cc-3n2)c1F [Compound 343, 5-[4-(2,4-Bis-trifluoromethyl-phenoxy)-benzyl]-2-(2,3-difluoro-phenyl)-5H-imidazo[4,5-d]pyridazine]	26900
Fc1cccc(-c2nc3cnn(Cc4ccc(-c5ccc(Br)c(C(F)(F)F)c5)cc4)cc-3n2)c1F [Compound 344, 5-(4′-Bromo-3′-trifluoromethyl-biphenyl-4-ylmethyl)-2-(2,3-difluoro-phenyl)-5H-imidazo[4,5-d]pyridazine]	320
[O-][n+]1cc(Cn2cc3nc(-c4cccc(F)c4F)nc-3cn2)ccc1-c1ccc(C(F)(F)F)cc1C(F)(F)F [Compound 345, 5-[6-(2,4-Bis-trifluoromethyl-phenyl)-1-oxy-pyridin-3-ylmethyl]-2-(2,3-difluoro-phenyl)-5H-imidazo[4,5-d]pyridazine]	80
COc1ccc(-c2ccc(Cn3cc4nc(-c5cccc(F)c5F)nc-4cn3)cc2C(=O)O)c(C(F)(F)F)c1 [Compound 346, 4-[2-(2,3-Difluoro-phenyl)-imidazo[4,5-d]pyridazin-5-ylmethyl]-4′-methoxy-2′-trifluoromethyl-biphenyl-2-carboxylic acid]	≥ 50000
CCCCc1ccc(-c2ccc(Cn3cc4nc(-c5cccc(F)c5F)nc-4cn3)cn2)cc1C(F)(F)F [Compound 347, 5-[6-(4-Butyl-3-trifluoromethyl-phenyl)-pyridin-3-ylmethyl]-2-(2,3-difluoro-phenyl)-5H-imidazo[4,5-d]pyridazine]	2590
COc1ccc(-c2ccc(Cn3cc4nc(-c5cccc(F)c5F)nc-4cn3)c(OCCCO)c2)c(C(F)(F)F)c1 [Compound 348, 3-{4-[2-(2,3-Difluoro-phenyl)-imidazo[4,5-d]pyridazin-5-ylmethyl]-4′-methoxy-2′-trifluoromethyl-biphenyl-3-yloxy}-propan-1-ol]	279
COc1ccc(-c2ccc(Cn3cc4nc(-c5cccc(F)c5F)nc-4cn3)c(OCCCN3CCOCC3)c2)c(C(F)(F)F)c1 [Compound 349, 2-(2,3-Difluoro-phenyl)-5-[4′-methoxy-3-(3-morpholin-4-yl-propoxy)-2′-trifluoromethyl-biphenyl-4-ylmethyl]-5H-imidazo[4,5-d]pyridazine]	6260
Oc1ccc(-c2ccc(Cn3cc4nc(-c5cccc(F)c5F)nc-4cn3)nn2)c(C(F)(F)F)c1 [Compound 350, 4-{6-[2-(2,3-Difluoro-phenyl)-imidazo[4,5-d]pyridazin-5-ylmethyl]-pyridazin-3-yl}-3-trifluoromethyl-phenol]	≥ 50000
FCCCOc1ccc(-c2ccc(Cn3cc4nc(-c5cccc(F)c5F)nc-4cn3)nn2)c(C(F)(F)F)c1 [Compound 351, 2-(2,3-Difluoro-phenyl)-5-{6-[4-(3-fluoro-propoxy)-2-trifluoromethyl-phenyl]-pyridazin-3-ylmethyl}-5H-imidazo[4,5-d]pyridazine]	25
FCCOc1ccc(-c2ccc(Cn3cc4nc(-c5cccc(F)c5F)nc-4cn3)nn2)c(C(F)(F)F)c1 [Compound 352, 2-(2,3-Difluoro-phenyl)-5-{6-[4-(2-fluoro-ethoxy)-2-trifluoromethyl-phenyl]-pyridazin-3-ylmethyl}-5H-imidazo[4,5-d]pyridazine]	22.8
O=S(=O)(Oc1ccc(-c2ccc(Cn3cc4nc(-c5cccc(F)c5F)nc-4cn3)nn2)c(C(F)(F)F)c1)C(F)(F)F [Compound 353, Trifluoro-methanesulfonic acid 4-{6-[2-(2,3-difluoro-phenyl)-imidazo[4,5-d]pyridazin-5-ylmethyl]-pyridazin-3-yl}-3-trifluoromethyl-phenyl ester]	1190
Fc1cccc(-c2nc3cnn(Cc4ccc(-c5ccc(-c6cccs6)cc5C(F)(F)F)nn4)cc-3n2)c1F [Compound 354, 2-(2,3-Difluoro-phenyl)-5-[6-(4-thiophen-2-yl-2-trifluoromethyl-phenyl)-pyridazin-3-ylmethyl]-5H-imidazo[4,5-d]pyridazine]	225
Fc1cccc(-c2nc3cnn(Cc4ccc(N5CCOCC5)nn4)cc-3n2)c1F [Compound 355, 2-(2,3-Difluoro-phenyl)-5-(6-morpholin-4-yl-pyridazin-3-ylmethyl)-5H-imidazo[4,5-d]pyridazine]	≥ 50000
COc1ccc(-c2ccc(Cn3cc4nc(-c5cccc(F)c5F)nc-4cn3)cc2N)c(C(F)(F)F)c1 [Compound 356, 4-[2-(2,3-Difluoro-phenyl)-imidazo[4,5-d]pyridazin-5-ylmethyl]-4′-methoxy-2′-trifluoromethyl-biphenyl-2-ylamine]	100
CCCOc1ccc(-c2ccc(Cn3cc4nc(-c5cccc(F)c5F)nc-4cn3)cc2N)cc1 [Compound 357, 4-[2-(2,3-Difluoro-phenyl)-imidazo[4,5-d]pyridazin-5-ylmethyl]-4′-propoxy-biphenyl-2-ylamine]	≥ 50000
COc1ccc(-c2ccc(Cn3cc4nc(-c5cccc(F)c5F)nc-4cn3)nc2N)c(C(F)(F)F)c1 [Compound 358, 6-[2-(2,3-Difluoro-phenyl)-imidazo[4,5-d]pyridazin-5-ylmethyl]-3-(4-methoxy-2-trifluoromethyl-phenyl)-pyridin-2-ylamine]	291
COc1ccc(-c2ccc(Cn3cc4nc(-c5cccc(F)c5F)nc-4cn3)nc2O)c(C(F)(F)F)c1 [Compound 359, 6-[2-(2,3-Difluoro-phenyl)-imidazo[4,5-d]pyridazin-5-ylmethyl]-3-(4-methoxy-2-trifluoromethyl-phenyl)-pyridin-2-ol]	2230
Nc1nc(-c2ccc(C(F)(F)F)cc2C(F)(F)F)ccc1Cn1cc2nc(-c3cccc(F)c3F)nc-2cn1 [Compound 360, 6-(2,4-Bis-trifluoromethyl-phenyl)-3-[2-(2,3-difluoro-phenyl)-imidazo[4,5-d]pyridazin-5-ylmethyl]-pyridin-2-ylamine]	11
Oc1nc(-c2ccc(C(F)(F)F)cc2C(F)(F)F)ccc1Cn1cc2nc(-c3cccc(F)c3F)nc-2cn1 [Compound 361, 6-(2,4-Bis-trifluoromethyl-phenyl)-3-[2-(2,3-difluoro-phenyl)-imidazo[4,5-d]pyridazin-5-ylmethyl]-pyridin-2-ol]	13700
CCCOc1ccc(-c2ncc(Cn3cc4nc(-c5ccccc5F)nc-4cn3)cn2)c(C(F)(F)F)c1 [Compound 362, 2-(2-Fluoro-phenyl)-5-[2-(4-propoxy-2-trifluoromethyl-phenyl)-pyrimidin-5-ylmethyl]-5H-imidazo[4,5-d]pyridazine]	19
CCCOc1ccc(-c2ncc(Cn3cc4nc(-c5cccc(F)c5F)nc-4cn3)cn2)c(C(F)(F)F)c1 [Compound 363, 2-(2,3-Difluoro-phenyl)-5-[2-(4-propoxy-2-trifluoromethyl-phenyl)-pyrimidin-5-ylmethyl]-5H-imidazo[4,5-d]pyridazine]	5
Nc1ccc(-c2ccc(Cn3cc4nc(-c5cccc(F)c5F)nc-4cn3)cn2)c(C(F)(F)F)c1 [Compound 364, 4-{5-[2-(2,3-Difluoro-phenyl)-imidazo[4,5-d]pyridazin-5-ylmethyl]-pyridin-2-yl}-3-trifluoromethyl-phenylamine]	≥ 50000
Cc1ccc(-c2ccc(Cn3cc4nc(-c5cccc(F)c5F)nc-4cn3)cn2)c(C(F)(F)F)c1 [Compound 376, 2-(2,3-Difluoro-phenyl)-5-[6-(4-methyl-2-trifluoromethyl-phenyl)-pyridin-3-ylmethyl]-5H-imidazo[4,5-d]pyridazine]	131
